Data as given in US12077503B2, “Substituted cyclic amides and their use as herbicides” (FMC CORPORATION, priority 2015, dated 2024).

Key:
Format in all cases: in vivo
Kochia (Kochia scoparia) = test: Test A preemergence; conditions: Bassia scoparia, pre-emergence, 240 h, preemergence, 0 to 100 scale where 0 is no effect and 100 is complete control, read-out: Kochia plant response rating
Method in brief: (§1)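 Visual injury scores from 0, no effect, to 100, complete control, were assigned versus untreated controls roughly 10 d after treatment in the greenhouse. Test chemicals, formulated with surfactant in a non-phytotoxic solvent, were applied to planted seeds as a preemergence soil spray or postemergence to one- to two-leaf plants 2 to 10 cm tall, in loam–sand soil.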

[1] = test system: ragweed (common ragweed, Ambrosia elatior); test: Test A preemergence; conditions: Ambrosia artemisiifolia, pre-emergence, 240 h, preemergence, 0 to 100 scale where 0 is no effect and 100 is complete control, read-out: Ragweed plant response rating
Method in brief: as §1

[2] = test system: barnyardgrass (Echinochloa crus-galli); test: Test A preemergence; conditions: Echinochloa crus-galli, pre-emergence, 240 h, preemergence, read-out: Barnyardgrass plant response rating
Method in brief: as §1

[3] = test system: pigweed (Amaranthus retroflexus); test: Test A preemergence; conditions: Amaranthus retroflexus, pre-emergence, 240 h, preemergence, 0 to 100 scale where 0 is no effect and 100 is complete control, read-out: Pigweed plant response rating
[4] = test system: ryegrass, Italian (Italian ryegrass, Lolium multiflorum); test: Test A preemergence; conditions: Lolium multiflorum, pre-emergence, 240 h, preemergence, 0 to 100 scale where 0 is no effect and 100 is complete control, read-out: Ryegrass, Italian plant response rating
Method in brief: as §1

[5] = test system: giant foxtail (Setaria faberii); test: Test A preemergence; conditions: Setaria faberi, pre-emergence, 240 h, preemergence, 0 to 100 scale where 0 is no effect and 100 is complete control, read-out: Foxtail, Giant plant response rating
Method in brief: as §1

[6] = test system: ragweed (common ragweed, Ambrosia elatior); test: Test A postemergence; conditions: Ambrosia artemisiifolia, post-emergence, 240 h, postemergence, read-out: Ragweed plant response rating
Method in brief: as §1

[7] = test system: barnyardgrass (Echinochloa crus-galli); test: Test A postemergence; conditions: Echinochloa crus-galli, post-emergence, 240 h, postemergence, read-out: Barnyardgrass plant response rating
Method in brief: as §1

corn (Zea mays) = test: Test A postemergence; conditions: Zea mays, post-emergence, 240 h, postemergence, read-out: Corn plant response rating
Method in brief: as §1

[8] = test system: pigweed (Amaranthus retroflexus); test: Test A postemergence; conditions: Amaranthus retroflexus, post-emergence, 240 h, postemergence, read-out: Pigweed plant response rating
Method in brief: as §1

[9] = test system: ryegrass, Italian (Italian ryegrass, Lolium multiflorum); test: Test A postemergence; conditions: Lolium multiflorum, post-emergence, 240 h, postemergence, read-out: Ryegrass, Italian plant response rating
Method in brief: as §1

[10] = test system: blackgrass (Alopecurus myosuroides); test: Test A postemergence; conditions: Alopecurus myosuroides, post-emergence, 240 h, postemergence, read-out: Blackgrass plant response rating
Method in brief: as §1

[11] = test system: Galium (catchweed bedstraw, Galium aparine); test: Test A postemergence; conditions: Galium, post-emergence, 240 h, postemergence, read-out: Galium plant response rating
Method in brief: as §1

[12] = test system: giant foxtail (Setaria faberii); test: Test A postemergence; conditions: Setaria faberi, post-emergence, 240 h, postemergence, read-out: Foxtail, Giant plant response rating
Method in brief: as §1

[13] = test system: wheat (Triticum aestivum); test: Test A postemergence; conditions: Triticum aestivum, post-emergence, 240 h, postemergence, read-out: Wheat plant response rating
Method in brief: as §1

[14] = 125 g ai/ha, visual injury on 0 to 100 scale (0 no effect, 100 complete control), approx. 10 d
[15] = 500 g ai/ha, 0 to 100 scale, 0 is no effect, 100 is complete control

## O=C1NC[C@H](c2cc(C(F)F)cs2)[C@H]1C(=O)Nc1ccccc1F [Compound 1116]
Kochia (Kochia scoparia); 125 g ai/ha, approx. 10 d
  pest or weed control at 125 g/ha: 0%
Kochia (Kochia scoparia); 500 g ai/ha
  pest or weed control at 500 g/ha: 30%
[1]; 125 g ai/ha, approx. 10 d
  pest or weed control at 125 g/ha: 0%
[1]; 500 g ai/ha
  pest or weed control at 500 g/ha: 20%
[2]; 125 g ai/ha, 0 to 100 scale where 0 is no effect and 100 is complete control, approx. 10 d
  pest or weed control at 125 g/ha: 90%
[2]; 500 g ai/ha, visual injury rating about 10 d after treatment, 0 to 100 scale (0 no effect, 100 complete control)
  pest or weed control at 500 g/ha: 90%
[3]; 125 g ai/ha, approx. 10 d
  pest or weed control at 125 g/ha: 0%
[3]; 500 g ai/ha
  pest or weed control at 500 g/ha: 20%
[4]; 125 g ai/ha, approx. 10 d
  pest or weed control at 125 g/ha: 0%
[4]; 500 g ai/ha
  pest or weed control at 500 g/ha: 20%
[5]; 125 g ai/ha, approx. 10 d
  pest or weed control at 125 g/ha: 20%
[5]; 500 g ai/ha
  pest or weed control at 500 g/ha: 90%
[6]; [14]
  pest or weed control at 125 g/ha: 0%
[6]; [15]
  pest or weed control at 500 g/ha: 0%
[7]; [14]
  pest or weed control at 125 g/ha: 30%
[7]; [15]
  pest or weed control at 500 g/ha: 60%
Corn (Zea mays); [14]
  plant injury at 125 g/ha: 0%
Corn (Zea mays); [15]
  plant injury at 500 g/ha: 0%
[8]; [14]
  pest or weed control at 125 g/ha: 0%
[8]; [15]
  pest or weed control at 500 g/ha: 0%
[9]; [14]
  pest or weed control at 125 g/ha: 0%
[9]; [15]
  pest or weed control at 500 g/ha: 20%
[10]; [14]
  pest or weed control at 125 g/ha: 0%
[10]; [15]
  pest or weed control at 500 g/ha: 30%
[11]; [14]
  pest or weed control at 125 g/ha: 0%
[11]; [15]
  pest or weed control at 500 g/ha: 40%
[12]; [14]
  pest or weed control at 125 g/ha: 0%
[12]; [15]
  pest or weed control at 500 g/ha: 0%
[13]; [14]
  plant injury at 125 g/ha: 0%
[13]; [15]
  plant injury at 500 g/ha: 20%
